Here are results for four compounds from patent publication US20050192339A1, “Compounds” (priority 2003, published 2005).

Structures can show the parent of a compound that is named as a salt.

A word on the Ki: it is the equilibrium dissociation constant of an inhibitor or competing ligand from its target. Usually Kd stands for the concentration at which binding is half-saturated.

Assay [1] concerns the target T1, human MCH1R receptor (Homo sapiens, UniProt Q99705).
T1 construct: host or cells: CHO-K1
Description: MCH1R receptor binding by SPA ([125I]-MCH displacement, CHO-K1 hMCH1R membranes). Conditions: 0.2 nM [125I]-MCH, membranes of CHO-K1 cells expressing hMCH1 receptor, room temperature; Ki calculated from IC50 (Cheng-Prusoff). Here is the method: The compounds according to the invention were evaluated for their binding to the human MCH1R receptor by the following method:
Compounds: MCH peptide was purchased from Phoenix pharmaceuticals. (Phe^13, [^125I]Tyr^19 Melanine-Concentrating Hormone (human, mouse, rat) ([^125I]-MCH) was obtained from NEN life Science Products. Inc. Boston, Mass. Wheat germ agglutinine SPA beads (RPNQ 0001) were obtained from Amersham-Pharmacia Biotech. All other reagents used are of highest purity from different resources available. Protein Kits, Micro BCA™ Protein Assay Reagent Kit (Cat No. 23235) were purchased from Piece, Rockford, Ill., USA.
CHO-K1 cells expressing hMCH1 receptor were purchased from Euroscreen. CHO-K1 hMCHRI (Euroscreen, Brussels, Belgium, # ES-370-C) were cultivated in Nutrient mixture Ham's F-12 with Glutamax I (Gibco-BRL #31765-027) supplemented with 10% heat-inactivated foetal calf serum (FCS, Gibco-BRL #10108-165) and 400 μg/ml geniticin (Gibco-BRL #1140-0359). The cells were sub-cultivated twice weekly with split ratio=1:20-1:30. For membrane preparation the cells were cultured in […] and the cells were harvested when 90% confluent.
When the cells reached more than 90% confluence, dishes (500 cm^2) were rinsed twice with 20 ml PBS (Ca^2+ and Mg^2+ free). Buffer A, which contains Tris.HCl (15), MgCl2.6H2O (2), EDTA (0.3), EGTA (1) in mM with pH 7.5, 25 ml was added and cells were suspended using a window scraper. The cells were collected in 50 ml Falcon tube pre-cooled on ice and then centrifuged for 3 minutes at 1500 g at 4° C. […]
The radio labeled [^125I]-MCH was diluted with cold MCH in ratio 1:3. […] The results were calculated using Excel program and the curves were drawn using a program GraphPad Prism.
For screening of the substances the amount of the beads used was 0.25 mg/well and the amount of the membrane protein was 4 μg/well 0.2 nM of labeled MCH was used. […] The samples were counted using Microbeta counter (Wallac Trilux 1450 Micro beta counter, Wallac, Finland) for 2 minutes and the results were calculated by using the computer program Activity Base. […]

For assay [2], the target named is T1, human MCH1R receptor. Conditions: from Hervieu et al., Eur J Neurosci 2000; read-out: Kd of MCH binding reported in literature; cited from earlier work.

T1 sequence (Q99705 whole entry): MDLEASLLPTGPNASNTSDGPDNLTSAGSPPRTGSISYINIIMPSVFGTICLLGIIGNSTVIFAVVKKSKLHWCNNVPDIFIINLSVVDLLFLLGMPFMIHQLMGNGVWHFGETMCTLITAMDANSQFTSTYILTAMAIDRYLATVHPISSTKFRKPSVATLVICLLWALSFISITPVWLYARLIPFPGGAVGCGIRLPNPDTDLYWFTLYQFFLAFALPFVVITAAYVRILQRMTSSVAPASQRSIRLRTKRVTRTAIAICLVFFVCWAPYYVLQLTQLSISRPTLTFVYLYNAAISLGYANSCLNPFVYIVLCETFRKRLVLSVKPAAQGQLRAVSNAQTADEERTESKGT

Regarding `COc1ccc([C@@]23CC[C@@H](NC(=S)NCc4ccccc4)C[C@@H]2N(CCCc2ccccc2)CC3)cc1OC` (relative stereo) [Example 23, N-benzyl-N′-[(3aS*,6R*,7aS*)-3a-(3,4-dimethoxyphenyl)-1-(3-phenylpropyl)octahydro-1H-indol-6-yl]thiourea], on human MCH1R receptor [1], the Ki was 43 nM. Same read-out and setting: the same measure for `C=CCNC(=O)N[C@@H]1CC[C@@]2(c3ccc(OC)c(OC)c3)CCN(C)[C@H]2C1` (relative stereo) [Example 58, N-allyl-N′-[(3aS*,6R*7aS*)-3a-(3,4-dimethoxyphenyl)-1-methyloctahydro-1H-indol-6-yl]urea trifluoroacetate]: 907 nM; for `COc1ccc([C@@]23CC[C@@H](NC(=O)NCc4ccc(Br)cc4)C[C@@H]2N(C)CC3)cc1OC` (relative stereo) [Example 69, N-(4-bromobenzyl)-N′-[(3aS*,6R*,7aS*)-3a-(3,4-dimethoxyphenyl)-1-methyloctahydro-1H-indol-6-yl]urea trifluoroacetate]: 227 nM. In the case of [^125I]-MCH, the Kd at human MCH1R receptor [2] is 1.2 nM.
